{"source": "patent US7659426B2", "about": "“Target protein of anticancer agent and novel anticancer agent (spnal) corresponding thereto” (Reverse Proteomics Research Institute Co., Ltd., priority 2003, dated 2010)", "key": {"COX1": {"molecular_target": "COX1 (Homo sapiens, UniProt P23219)", "sequence (P23219 24-599)": "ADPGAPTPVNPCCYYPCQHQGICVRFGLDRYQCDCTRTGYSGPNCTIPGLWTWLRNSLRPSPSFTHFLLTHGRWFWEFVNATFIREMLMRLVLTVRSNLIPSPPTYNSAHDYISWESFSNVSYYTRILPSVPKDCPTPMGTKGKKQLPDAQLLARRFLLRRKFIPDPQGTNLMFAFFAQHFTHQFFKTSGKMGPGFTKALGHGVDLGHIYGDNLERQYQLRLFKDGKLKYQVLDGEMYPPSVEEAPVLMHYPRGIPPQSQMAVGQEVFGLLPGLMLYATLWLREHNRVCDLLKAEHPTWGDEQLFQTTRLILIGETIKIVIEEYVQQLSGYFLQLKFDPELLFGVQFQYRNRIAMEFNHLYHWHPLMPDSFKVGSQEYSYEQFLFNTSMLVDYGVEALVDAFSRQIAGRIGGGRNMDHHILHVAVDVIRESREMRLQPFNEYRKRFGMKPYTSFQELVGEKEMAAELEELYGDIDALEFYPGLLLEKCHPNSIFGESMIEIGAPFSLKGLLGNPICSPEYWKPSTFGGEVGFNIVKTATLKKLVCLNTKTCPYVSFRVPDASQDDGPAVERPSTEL", "parameters": "key to COX1 inhibitory effect: x: weak effect; ∘: definite inhibitory effect", "details": "cited from earlier work; for inhibitory effect on COX1: Cancer Research, 57, pp. 2909-2915 (1997)"}, "COX2": {"molecular_target": "T1, COX2 (Homo sapiens, UniProt P35354)", "T1 sequence (P35354 18-604)": "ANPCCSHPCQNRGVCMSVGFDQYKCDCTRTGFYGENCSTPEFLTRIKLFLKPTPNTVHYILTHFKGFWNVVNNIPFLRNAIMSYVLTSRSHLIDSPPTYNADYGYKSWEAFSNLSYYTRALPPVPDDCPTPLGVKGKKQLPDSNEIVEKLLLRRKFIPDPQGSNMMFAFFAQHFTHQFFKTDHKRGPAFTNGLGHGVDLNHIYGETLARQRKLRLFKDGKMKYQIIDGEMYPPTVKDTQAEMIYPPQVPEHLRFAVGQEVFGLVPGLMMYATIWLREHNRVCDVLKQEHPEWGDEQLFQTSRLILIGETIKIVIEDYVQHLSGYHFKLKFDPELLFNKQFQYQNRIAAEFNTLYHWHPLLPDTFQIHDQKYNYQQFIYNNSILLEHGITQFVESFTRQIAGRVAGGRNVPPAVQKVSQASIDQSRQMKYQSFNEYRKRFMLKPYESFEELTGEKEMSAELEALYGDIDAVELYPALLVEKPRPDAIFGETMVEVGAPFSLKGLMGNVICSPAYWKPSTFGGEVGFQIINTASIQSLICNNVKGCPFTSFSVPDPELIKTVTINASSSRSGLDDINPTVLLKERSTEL", "details": "Cancer Research, 57, pp. 2909-2915 (1997); cited from earlier work"}, "[1]": {"molecular_target": "T2, KSRP (MARTA1, a rat protein having a high homology to KSRP) (Rattus norvegicus, UniProt Q99PF5)", "T2 construct": "from tissue; host or cells: rat brain", "T2 sequence (Q99PF5 1-721)": "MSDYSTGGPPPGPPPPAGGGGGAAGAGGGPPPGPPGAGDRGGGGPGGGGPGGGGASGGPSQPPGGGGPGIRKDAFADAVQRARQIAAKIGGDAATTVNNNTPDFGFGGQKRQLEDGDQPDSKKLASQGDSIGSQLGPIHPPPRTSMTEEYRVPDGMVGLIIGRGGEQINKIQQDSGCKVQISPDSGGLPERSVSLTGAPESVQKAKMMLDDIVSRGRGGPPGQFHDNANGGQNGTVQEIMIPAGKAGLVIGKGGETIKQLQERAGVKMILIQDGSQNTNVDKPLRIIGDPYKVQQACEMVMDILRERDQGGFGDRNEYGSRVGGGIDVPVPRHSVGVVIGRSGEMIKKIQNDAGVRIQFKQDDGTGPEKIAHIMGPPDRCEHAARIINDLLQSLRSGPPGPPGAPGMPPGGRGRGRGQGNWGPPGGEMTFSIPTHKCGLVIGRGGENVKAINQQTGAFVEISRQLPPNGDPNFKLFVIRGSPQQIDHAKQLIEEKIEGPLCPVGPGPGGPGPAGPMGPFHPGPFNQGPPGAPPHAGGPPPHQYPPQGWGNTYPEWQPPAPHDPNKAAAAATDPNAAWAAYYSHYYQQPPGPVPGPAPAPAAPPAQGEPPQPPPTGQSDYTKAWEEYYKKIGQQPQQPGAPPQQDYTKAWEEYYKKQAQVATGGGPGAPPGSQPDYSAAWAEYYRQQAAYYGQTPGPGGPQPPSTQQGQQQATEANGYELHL", "test": "Binding experiments: compound-immobilized resins with rat brain lysate, SDS gel (FIG. 1)", "details": "4° C.", "method": "The rat brain (2.4 g) was mixed in a mixture A (25 mM Tris-HCl pH 8.0, 0.5% Tween 20, 300 μM DCC (24 ml; N,N-diethyldithiocarbamate sodium)) and prepared as a homogenate, which was then centrifuged at 9,000 rpm for 10 minutes. The centrifugal supernatant was collected and further centrifuged at 50,000 rpm for 30 minutes. The supernatant thus obtained was used as the lysate.\nEach resin (10 μl) and lysate (1 ml) were gently shaken at 4° C. for about 1 hour. Thereafter, centrifugal operation was performed, and each supernatant was collected carefully. Then, each supernatant was again mixed with a fresh compound-bound resin (10 μl). At this time, the separated compound-bound resin was kept to stand at 4° C. as the resin from the first binding experiment. After the mixture was gently stirred for about 3 hours, centrifugal operation was performed, and the supernatant was removed. Subsequently, the compound-bound resin obtained in the second binding experiment and the resin obtained in the first binding experiment were gently washed with mixture A about five times to remove substances other than the protein bound onto the resin to the maximum possible extent. […]"}}, "note": "Entries after “also recorded” stand apart in the source; their conditions may differ."}
{"smiles": "CC1=C(CC(=O)O)c2cc(F)ccc2/C1=C\\c1ccc(S(C)(=O)=O)cc1", "note": "[Sulindac sulfone]", "values": [{"measurement": "inhibitory effect on COX1", "setting": "COX1", "result": "only weak inhibitory effect"}, {"measurement": "COX1 inhibitory effect", "setting": "COX1", "result": "x"}, {"measurement": "inhibitory effect on COX2", "setting": "COX2", "result": "only weak inhibitory effect"}]}
{"smiles": "CSc1ccc(/C=C2/C(C)=C(CC(=O)O)c3cc(F)ccc32)cc1", "note": "[Sulindac sulfide]", "values": [{"measurement": "binding of KSRP (MARTA1) to the compound-immobilized resin", "setting": "[1]", "result": "other than the resin immobilized with sulindac sulfide; also recorded: other than the resin wherein sulindac sulfide was immobilized"}]}
{"smiles": "CC(=O)O[C@H]1C(=O)[C@@]2(C)[C@H]([C@H](OC(=O)c3ccccc3)[C@]3(O)C[C@H](OC(=O)[C@H](O)[C@@H](NC(=O)c4ccccc4)c4ccccc4)C(C)=C1C3(C)C)[C@]1(OC(C)=O)CO[C@@H]1C[C@@H]2O", "note": "[Taxol]", "values": [{"measurement": "binding of KSRP (MARTA1) to the compound-immobilized resin", "setting": "[1]", "result": "binds to KSRP"}]}
{"smiles": "CC1=C(CC(=O)O)c2cc(F)ccc2/C1=C\\c1ccc([S+](C)[O-])cc1", "note": "(centres unmarked) [Sulindac]", "values": [{"measurement": "inhibitory effect on COX1", "setting": "COX1", "result": "only weak inhibitory effect"}, {"measurement": "COX1 inhibitory effect", "setting": "COX1", "result": "x"}, {"measurement": "inhibitory effect on COX2", "setting": "COX2", "result": "only weak inhibitory effect"}]}
